From article PMC12464775, “Selective and Potent Peptide Binders of RNF43 for Wnt Signaling Inhibition” (ACS Central Science, 2025)
Bridge positions count the residues as written; N and C are the ends. Peptide text beside a SMILES is read from it. * marks the point of attachment. Biotin = O=C1N[C@H]2[C@H](CS[C@H]2CCCCC(=O)*)N1

How the values were obtained:
ZNRF3 = test: SPR binding to ZNRF3 (specificity); conditions: for binding to ZNRF3: protein immobilized, untagged DCP injected
Protocol: (§1) SPR measurement was carried out using a Biacore S200 (Cytiva) instrument, with PBS-T (PBS with 0.05% Tween 20, pH 7.4) as the buffer. Biotinylated protein was captured on three sensor channels of Series S SA Sensors (Cytiva). The sensors were then blocked with 0.1 mg/mL biotin. DCPs were injected onto the sensor in a 3× concentration series. The data were double-referenced by subtracting the signal from a sensor channel coated with biotin only and the signal from a buffer injection. For data analysis, binding data were fitted using the manufacturer’s software. ,

human RNF43 = biological target: T1, human RNF43 (Homo sapiens, UniProt Q68DV7); test: SPR binding of DCPs to immobilized human RNF43 ECD; conditions: SPR KD; each round of affinity maturation versus its parent DCP
T1 construct: ECD of the human RNF43 protein was incubated with EZ-link-NHS-PEG4-biotin; biotin (chemical label, NHS-PEG4-biotin on amines, 1-2 per protein)
T1 sequence (Q68DV7 24-197 limits assumed): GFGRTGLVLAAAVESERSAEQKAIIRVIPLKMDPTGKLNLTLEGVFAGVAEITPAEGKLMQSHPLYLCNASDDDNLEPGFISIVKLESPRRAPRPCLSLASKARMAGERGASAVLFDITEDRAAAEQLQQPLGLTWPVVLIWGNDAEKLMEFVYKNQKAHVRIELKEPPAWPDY
Protocol: ECD of the human RNF43 protein was incubated with EZ-link-NHS-PEG4-biotin (Thermo Fisher, 1:1, 50 μM) for 1 h at room temperature (RT). The reaction was quenched by addition of 10 mM Glycine, followed by dialysis into phosphate buffered saline (PBS) overnight at 4 °C. Finally, the biotinylated protein was analyzed using LC-MS to ensure that each protein is labeled with 1–2 biotin molecules. ,
as §1

SMILES | binding to ZNRF3 (ZNRF3) | improvement in affinity for RNF43 over the previous generation (human RNF43) | further results
CC[C@H](C)[C@H](NC(=O)[C@@H]1CSSC[C@H](NC(=O)[C@H](CCC(N)=O)NC(=O)[C@@H](NC(=O)[C@H](Cc2ccc(O)cc2)NC(=O)[C@@H](NC(=O)[C@H](CC(C)C)NC(=O)CNC(=O)[C@@H]2CSSC[C@H](NC(=O)[C@H](CCC(N)=O)NC(=O)[C@@H](N)CCC(=O)O)C(=O)N[C@@H](CC(=O)O)C(=O)N[C@@H](CCC(N)=O)C(=O)N[C@@H](CC(=O)O)C(=O)N[C@@H](C)C(=O)N[C@@H](CO)C(=O)N[C@@H](C)C(=O)N2)[C@@H](C)CC)[C@@H](C)O)C(=O)N[C@H]2CSSC[C@H](NC(=O)[C@H](CC(=O)O)NC(=O)[C@H](CC(C)C)NC(=O)[C@@H]3CCCN3C(=O)[C@H](Cc3c[nH]c4ccccc34)NC2=O)C(=O)N[C@@H](CCCNC(=N)N)C(=O)N[C@@H](Cc2c[nH]c3ccccc23)C(=O)N[C@@H](C)C(=O)N[C@@H](C(C)C)C(=O)N[C@@H](CCCCN)C(=O)N[C@@H](Cc2ccc(O)cc2)C(=O)N[C@@H](CCC(N)=O)C(=O)N[C@@H](Cc2c[nH]c3ccccc23)C(=O)N[C@@H](Cc2ccccc2)C(=O)N[C@@H](Cc2c[nH]c3ccccc23)C(=O)N[C@@H](CC(=O)O)C(=O)N1)C(=O)NCC(=O)O [GUR-1.6.12.12] (H-EQCDQDASACGLIYTQCCWPLDCRWAVKYQWFWDCIG-OH; disulfide 3-10, 17-35, 18-23) | lack of binding | – | –
CC[C@H](C)[C@H](NC(=O)[C@@H]1CSSC[C@H](NC(=O)[C@H](CCC(N)=O)NC(=O)[C@H](CO)NC(=O)[C@H](Cc2ccc(O)cc2)NC(=O)[C@H](CCCCN)NC(=O)[C@H](Cc2ccccc2)NC(=O)[C@H](CC(N)=O)NC(=O)[C@@H]2CSSC[C@H](NC(=O)[C@H](CCC(N)=O)NC(=O)[C@@H](N)CCC(=O)O)C(=O)N[C@@H](CC(=O)O)C(=O)N[C@@H](CCC(N)=O)C(=O)N[C@@H]([C@@H](C)O)C(=O)N[C@@H](CC(N)=O)C(=O)N[C@@H](CC(C)C)C(=O)N[C@@H](Cc3ccccc3)C(=O)N2)C(=O)N[C@H]2CSSC[C@H](NC(=O)[C@H](CC(=O)O)NC(=O)[C@H](CC(C)C)NC(=O)[C@@H]3CCCN3C(=O)[C@H](Cc3c[nH]c4ccccc34)NC2=O)C(=O)N[C@@H](CCCNC(=N)N)C(=O)N[C@@H](Cc2c[nH]c3ccccc23)C(=O)N[C@@H](C)C(=O)N[C@@H](C(C)C)C(=O)N[C@@H](CCCCN)C(=O)N[C@@H](Cc2ccc(O)cc2)C(=O)N[C@@H](CCC(N)=O)C(=O)N[C@@H](Cc2c[nH]c3ccccc23)C(=O)N[C@@H](Cc2ccccc2)C(=O)N[C@@H](Cc2c[nH]c3ccccc23)C(=O)N[C@@H](CC(=O)O)C(=O)N1)C(=O)NCC(=O)O [GUR-1.6.12.4] (H-EQCDQTNLFCNFKYSQCCWPLDCRWAVKYQWFWDCIG-OH; disulfide 3-10, 17-35, 18-23) | lack of binding | – | –
CC[C@H](C)[C@H](NC(=O)[C@@H]1CSSC[C@@H]2NC(=O)[C@H](CC(=O)O)NC(=O)[C@H](CC(C)C)NC(=O)[C@H](Cc3ccc(O)cc3)NC(=O)[C@H](Cc3ccc(O)cc3)NC(=O)[C@@H]3CCCN3C(=O)[C@H]([C@@H](C)CC)NC(=O)[C@@H]3CSSC[C@H](NC(=O)[C@H](CC(=O)O)NC(=O)[C@H](CC(C)C)NC(=O)[C@@H]4CCCN4C(=O)[C@H](Cc4c[nH]c5ccccc45)NC(=O)[C@H](CSSC[C@H](NC(=O)[C@@H](N)CCC(N)=O)C(=O)N[C@@H](C(C)C)C(=O)N[C@@H](CCCCN)C(=O)N[C@@H](CCCCN)C(=O)N[C@@H](CC(=O)O)C(=O)N[C@@H](CCC(=O)O)C(=O)N[C@@H](CC(C)C)C(=O)N3)NC2=O)C(=O)N[C@@H](CCCNC(=N)N)C(=O)N[C@@H](Cc2c[nH]c3ccccc23)C(=O)N[C@@H](C)C(=O)N[C@@H](C(C)C)C(=O)N[C@@H](CCCCN)C(=O)N[C@@H](Cc2ccc(O)cc2)C(=O)N[C@@H](CCC(N)=O)C(=O)N[C@@H](Cc2c[nH]c3ccccc23)C(=O)N[C@@H](Cc2ccccc2)C(=O)N[C@@H](Cc2c[nH]c3ccccc23)C(=O)N[C@@H](CC(=O)O)C(=O)N1)C(=O)NCC(=O)O [GUR-1.6.12] (H-QCVKKDELCIPYYLDCCWPLDCRWAVKYQWFWDCIG-OH; disulfide 2-17, 9-22, 16-34; N-terminus assumed) | – | slightly improved | –
CC[C@H](C)[C@H](NC(=O)[C@@H]1CSSC[C@H](NC(=O)[C@H](CO)NC(=O)[C@H](Cc2c[nH]cn2)NC(=O)[C@@H](NC(=O)[C@@H]2CCCN2C(=O)[C@H](CCC(N)=O)NC(=O)[C@@H](NC(=O)[C@@H]2CSSC[C@H](NC(=O)[C@H](CCC(N)=O)NC(=O)[C@@H](N)CCC(=O)O)C(=O)N[C@@H](CCCNC(=N)N)C(=O)N[C@@H](CCC(=O)O)C(=O)N[C@@H](Cc3c[nH]cn3)C(=O)N[C@@H](Cc3ccccc3)C(=O)N[C@@H](Cc3c[nH]cn3)C(=O)N[C@@H](CC(=O)O)C(=O)N2)C(C)C)[C@@H](C)CC)C(=O)N[C@H]2CSSC[C@H](NC(=O)[C@H](CC(=O)O)NC(=O)[C@H](CC(C)C)NC(=O)[C@@H]3CCCN3C(=O)[C@H](Cc3c[nH]c4ccccc34)NC2=O)C(=O)N[C@@H](CCCNC(=N)N)C(=O)N[C@@H](Cc2c[nH]c3ccccc23)C(=O)N[C@@H](C)C(=O)N[C@@H](C(C)C)C(=O)N[C@@H](CCCCN)C(=O)N[C@@H](Cc2ccc(O)cc2)C(=O)N[C@@H](CCC(N)=O)C(=O)N[C@@H](Cc2c[nH]c3ccccc23)C(=O)N[C@@H](Cc2ccccc2)C(=O)N[C@@H](Cc2c[nH]c3ccccc23)C(=O)N[C@@H](CC(=O)O)C(=O)N1)C(=O)NCC(=O)O [GUR-1.6.12.16] (H-EQCREHFHDCVQPIHSCCWPLDCRWAVKYQWFWDCIG-OH; disulfide 3-10, 17-35, 18-23) | lack of binding | – | –
CC[C@H](C)[C@H](NC(=O)[C@@H]1CSSC[C@@H]2NC(=O)[C@H](CC(=O)O)NC(=O)[C@H](CC(C)C)NC(=O)[C@H](Cc3ccc(O)cc3)NC(=O)[C@H](Cc3ccc(O)cc3)NC(=O)[C@@H]3CCCN3C(=O)[C@H]([C@@H](C)CC)NC(=O)[C@@H]3CSSC[C@H](NC(=O)[C@H](CCC(=O)O)NC(=O)[C@H](CC(C)C)NC(=O)[C@@H]4CCCN4C(=O)[C@H](CCC(=O)O)NC(=O)[C@H](CSSC[C@H](NC(=O)[C@@H](N)CCC(N)=O)C(=O)N[C@@H](C(C)C)C(=O)N[C@@H](CCCCN)C(=O)N[C@@H](CCCCN)C(=O)N[C@@H](CC(=O)O)C(=O)N[C@@H](CCC(=O)O)C(=O)N[C@@H](CC(C)C)C(=O)N3)NC2=O)C(=O)N[C@@H](CCCNC(=N)N)C(=O)N[C@@H](Cc2c[nH]c3ccccc23)C(=O)N[C@@H](C)C(=O)N[C@@H](C(C)C)C(=O)N[C@@H](CCCCN)C(=O)N[C@@H](Cc2ccc(O)cc2)C(=O)N[C@@H](CCC(N)=O)C(=O)N[C@@H](Cc2c[nH]c3ccccc23)C(=O)N[C@@H](Cc2ccccc2)C(=O)N[C@@H](Cc2c[nH]c3ccccc23)C(=O)N[C@@H](CC(=O)O)C(=O)N1)C(=O)NCC(=O)O [GUR-1.6] (H-QCVKKDELCIPYYLDCCEPLECRWAVKYQWFWDCIG-OH; disulfide 2-17, 9-22, 16-34; N-terminus assumed) | – | 10 fold | –
CC[C@H](C)[C@H](NC(=O)[C@@H]1CSSC[C@H](NC(=O)[C@@H](NC(=O)[C@H](Cc2c[nH]cn2)NC(=O)[C@H](CO)NC(=O)[C@H](Cc2ccc(O)cc2)NC(=O)[C@H](CC(=O)O)NC(=O)[C@H](Cc2c[nH]cn2)NC(=O)[C@@H]2CSSC[C@H](NC(=O)[C@H](CCC(N)=O)NC(=O)[C@H](CCC(=O)O)NC(=O)CCCC[C@@H]3SC[C@@H]4NC(=O)N[C@@H]43)C(=O)N[C@@H]([C@@H](C)O)C(=O)N[C@@H](CO)C(=O)N[C@@H]([C@@H](C)O)C(=O)N[C@@H](CCC(N)=O)C(=O)N[C@@H](CC(=O)O)C(=O)N[C@@H](CC(C)C)C(=O)N2)C(C)C)C(=O)N[C@H]2CSSC[C@H](NC(=O)[C@H](CC(=O)O)NC(=O)[C@H](CC(C)C)NC(=O)[C@@H]3CCCN3C(=O)[C@H](Cc3c[nH]c4ccccc34)NC2=O)C(=O)N[C@@H](CCCNC(=N)N)C(=O)N[C@@H](Cc2c[nH]c3ccccc23)C(=O)N[C@@H](C)C(=O)N[C@@H](C(C)C)C(=O)N[C@@H](CCCCN)C(=O)N[C@@H](Cc2ccc(O)cc2)C(=O)N[C@@H](CCC(N)=O)C(=O)N[C@@H](Cc2c[nH]c3ccccc23)C(=O)N[C@@H](Cc2ccccc2)C(=O)N[C@@H](Cc2c[nH]c3ccccc23)C(=O)N[C@@H](CC(=O)O)C(=O)N1)C(=O)NCC(=O)O [bio-GUR-1.6.12.2] (Biotin-EQCTSTQDLCHDYSHVCCWPLDCRWAVKYQWFWDCIG-OH; disulfide 3-10, 17-35, 18-23) | – | – | binding to ZNRF3, peptide immobilized (ZNRF3; bio-GUR-1.6.12.2 on streptavidin sensor): without binding to ZNRF3
